From patent US8426408B2, “Pyrimidine inhibitors of kinases” (AbbVie Inc., priority 2009, dated 2013) come the findings set out here.

One test concerns the target T1, Aurora B (Homo sapiens, UniProt Q96GD4).
T1 construct: Active Aurora B enzyme (recombinant residues 1-344)
The test can be described thus: Aurora B enzyme inhibition (time-resolved fluorescence, histone H3 peptide). The format is biochemical. To be noted: 1 mM ATP. Summed up:
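IC50s came from an exponential fit of inhibition against inhibitor concentration, with phosphorylation read as the 665/615 nm time-resolved fluorescence ratio after EDTA stop using Eu-anti-phospho-H3 and SA-APC. The 1 h reaction used Aurora B 1-344 plus GST-INCENP, biotin-histone H3 1-21 peptide and 1 mM ATP in pH 7.4 HEPES buffer.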

The target of test [1] is T2, KDR (Homo sapiens, UniProt P35968). Put plainly: KDR HTRF in vitro kinase assay. Particulars: 1 mM ATP; read-out: KDR enzyme inhibition data (Ki). It counts as biochemical. Also noted: purified enzyme (His6-KDR 789-1354, MW 63 kD); His6 (N). Summed up: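 His6-KDR 789-1354 (7 ng/well) with 0.5 μM biotinylated peptide substrate and 1 mM ATP in HEPES pH 7.1, MgCl2/MnCl2, 60 min at room temperature. EDTA-quenched, detected by streptavidin-XL-665 plus Eu-kryptate anti-phosphotyrosine HTRF after 3 h; IC50 from 620/665 nm ratio.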
Target sequence in this assay (P35968 789-1354): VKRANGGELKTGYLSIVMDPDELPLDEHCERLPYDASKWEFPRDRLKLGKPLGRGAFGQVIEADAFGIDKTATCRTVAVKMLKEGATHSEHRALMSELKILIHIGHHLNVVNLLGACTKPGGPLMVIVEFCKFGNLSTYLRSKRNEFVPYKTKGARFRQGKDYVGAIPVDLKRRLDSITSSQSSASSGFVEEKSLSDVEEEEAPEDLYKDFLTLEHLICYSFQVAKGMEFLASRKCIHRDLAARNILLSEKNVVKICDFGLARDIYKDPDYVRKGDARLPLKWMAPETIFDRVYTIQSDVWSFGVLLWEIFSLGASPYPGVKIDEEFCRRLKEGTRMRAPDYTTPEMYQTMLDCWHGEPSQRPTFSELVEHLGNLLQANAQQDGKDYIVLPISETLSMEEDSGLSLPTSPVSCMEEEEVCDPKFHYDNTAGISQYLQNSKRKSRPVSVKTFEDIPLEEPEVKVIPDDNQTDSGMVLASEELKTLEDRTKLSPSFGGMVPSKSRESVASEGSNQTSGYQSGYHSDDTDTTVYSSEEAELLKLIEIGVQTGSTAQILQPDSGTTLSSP

For the next test, the system named is NCI-H1299 cells. Put plainly: Induction of polyploidy in H1299. The format is cell-based, Human. Particulars: NCI-H1299, 48 hours. The protocol:
To determine the induction of polyploidy in H1299 cells, NCI-H1299 were seeded (4K/well) into 96-well culture plates (tissue culture grade, black, flat-clear bottom) and incubated overnight to produce cell-to-plate adherence. Inhibitors at varying concentrations were added into duplicate wells containing cells and culture media (RPMI 1640, 10% fetal calf serum) and incubated at 37 C for 48 hours. The plates were then washed with PBS and the adherent cells fixed by incubating with 3% formalin for 1 hour. After washing four times with PBS, the cells were then stained with Hoechst and subjected to fluorescent (360 i/460e) microscopic high content analysis to determine the effect of inhibitors on nuclear size. Polyploid cells (≧4N) were defined as those having nuclear area>750μ^2. Potency was expressed as the concentration of inhibitor necessary to induce polyploidy in 15% of cells (EC15) and was calculated from least squares analysis of the log dose-response.

The next test deals with T3, Aurora A (Homo sapiens, UniProt O14965).
T3 sequence (O14965 1-403): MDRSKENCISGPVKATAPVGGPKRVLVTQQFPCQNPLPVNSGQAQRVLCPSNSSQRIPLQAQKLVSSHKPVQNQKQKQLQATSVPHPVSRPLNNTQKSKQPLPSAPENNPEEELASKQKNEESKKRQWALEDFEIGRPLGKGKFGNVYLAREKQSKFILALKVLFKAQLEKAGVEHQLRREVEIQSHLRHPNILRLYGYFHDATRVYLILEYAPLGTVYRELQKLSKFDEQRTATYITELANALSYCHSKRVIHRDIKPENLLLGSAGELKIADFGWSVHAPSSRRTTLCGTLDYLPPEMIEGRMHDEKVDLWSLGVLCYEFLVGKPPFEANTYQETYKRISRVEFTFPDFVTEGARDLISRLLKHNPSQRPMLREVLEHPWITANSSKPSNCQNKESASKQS
The test can be described thus: Aurora A enzyme inhibition (time-resolved fluorescence, STK substrate-2). The format is biochemical. Particulars: 1 mM ATP. Summed up:
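Phosphorylation of biotinylated STK substrate-2 at 1 mM ATP, 1 h, Hepes buffer pH 7.4 (MgCl2, sodium orthovanadate, Triton X-100). After EDTA quench, 665/615 nm time-resolved fluorescence ratio read via europium anti-phospho antibody and SA-XL665; IC50 from exponential fit versus inhibitor concentration.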

The target of test [2] is T2, KDR. Put plainly: KDR cellular assay (KDR receptor phosphorylation ELISA). Particulars: KDR transfected 3T3 (embryonic mouse) cells, VEGF stimulated; read-out: IC50 inhibition of KDR phosphorylation. Also noted: expressed in transfected cells; host or cells: 3T3 (embryonic mouse) cells. It counts as cell-based. Summed up:
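Phospho-KDR measured by capture ELISA (anti-KDR coat, biotinylated detection, streptavidin-HRP, 450 nm) in lysates of KDR-expressing 3T3 mouse fibroblasts. Cells saw compound 20 min at 37° C before 10 min VEGF challenge (100 ng/ml solution); IC50 from non-linear regression of half-log dose series.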
Target sequence in this assay (P35968 20-1356): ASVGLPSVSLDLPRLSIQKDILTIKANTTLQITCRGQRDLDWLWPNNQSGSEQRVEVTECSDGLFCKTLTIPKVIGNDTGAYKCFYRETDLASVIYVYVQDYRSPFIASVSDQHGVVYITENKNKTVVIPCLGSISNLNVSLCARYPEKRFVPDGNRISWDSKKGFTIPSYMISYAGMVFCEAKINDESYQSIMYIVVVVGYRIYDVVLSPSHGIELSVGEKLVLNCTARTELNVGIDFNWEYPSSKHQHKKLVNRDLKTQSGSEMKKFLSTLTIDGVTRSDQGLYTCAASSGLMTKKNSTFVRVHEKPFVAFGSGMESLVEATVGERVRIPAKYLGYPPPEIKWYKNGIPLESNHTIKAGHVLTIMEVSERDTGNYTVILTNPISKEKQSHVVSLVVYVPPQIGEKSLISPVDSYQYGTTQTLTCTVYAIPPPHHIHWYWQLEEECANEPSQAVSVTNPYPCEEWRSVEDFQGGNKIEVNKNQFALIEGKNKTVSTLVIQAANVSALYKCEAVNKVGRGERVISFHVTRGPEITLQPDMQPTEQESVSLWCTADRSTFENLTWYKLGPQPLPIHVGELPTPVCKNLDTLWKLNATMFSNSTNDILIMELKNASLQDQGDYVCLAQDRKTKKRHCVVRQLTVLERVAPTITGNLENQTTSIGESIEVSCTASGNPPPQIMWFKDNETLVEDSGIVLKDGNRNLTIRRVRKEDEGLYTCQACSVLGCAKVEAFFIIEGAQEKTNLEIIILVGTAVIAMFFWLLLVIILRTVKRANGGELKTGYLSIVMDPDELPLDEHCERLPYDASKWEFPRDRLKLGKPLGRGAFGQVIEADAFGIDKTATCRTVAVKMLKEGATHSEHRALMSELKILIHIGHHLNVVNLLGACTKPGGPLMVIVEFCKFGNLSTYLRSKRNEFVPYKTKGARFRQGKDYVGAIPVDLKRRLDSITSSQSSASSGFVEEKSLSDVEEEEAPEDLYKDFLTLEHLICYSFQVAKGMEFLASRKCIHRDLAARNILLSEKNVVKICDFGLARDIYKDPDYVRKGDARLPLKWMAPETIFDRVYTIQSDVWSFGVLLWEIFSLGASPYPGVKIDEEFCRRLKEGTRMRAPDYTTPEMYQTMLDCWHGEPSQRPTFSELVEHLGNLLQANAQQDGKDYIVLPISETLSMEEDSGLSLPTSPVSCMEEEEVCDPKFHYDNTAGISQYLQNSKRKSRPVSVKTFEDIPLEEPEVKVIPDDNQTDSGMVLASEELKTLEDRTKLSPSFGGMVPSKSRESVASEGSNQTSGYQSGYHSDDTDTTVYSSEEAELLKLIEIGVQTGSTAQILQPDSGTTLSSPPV
On the technique in general: In an ELISA, binding on a coated surface is turned into a signal by an enzyme label.

T1 sequence (Q96GD4 whole entry, the tested form may be a part): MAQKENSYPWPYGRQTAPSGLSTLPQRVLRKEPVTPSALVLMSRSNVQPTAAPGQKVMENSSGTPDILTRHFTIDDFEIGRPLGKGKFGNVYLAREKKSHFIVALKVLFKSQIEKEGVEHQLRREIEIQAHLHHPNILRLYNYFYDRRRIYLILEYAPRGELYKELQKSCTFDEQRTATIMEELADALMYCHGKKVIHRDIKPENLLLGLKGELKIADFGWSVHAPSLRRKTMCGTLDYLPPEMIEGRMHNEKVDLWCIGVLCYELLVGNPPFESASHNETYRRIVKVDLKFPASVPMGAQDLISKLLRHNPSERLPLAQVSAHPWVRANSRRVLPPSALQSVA
T1 sequence (Q9NQS7 826-918 partner limits assumed): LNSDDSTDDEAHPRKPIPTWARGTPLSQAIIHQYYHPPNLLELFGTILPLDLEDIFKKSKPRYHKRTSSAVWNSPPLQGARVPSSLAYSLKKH

The term Ki denotes the equilibrium dissociation constant of an inhibitor or competing ligand from its target. Turning to `Cn1cc(Nc2nccc(NC3C4C=CC(C4)C3C(N)=O)n2)cn1` (mixture of isomers) [Example 2, (1S,2S,3R,4R)-3-({2-[(1-methyl-1H-pyrazol-4-yl)amino]pyrimidin-4-yl}amino)bicyclo[2.2.1]hept-5-ene-2-carboxamide and (1R,2R,3S,4S)-3-({2-[(1-methyl-1H-pyrazol-4-yl)amino]pyrimidin-4-yl}amino)bicyclo[2.2.1]hept-5-ene-2-carboxamide], the Ki at Aurora B was 100 to 1000 nM; on KDR [1], above 5000 nM; at Aurora A it was 1000 to 5000 nM. Besides, in the test with NCI-H1299 cells (Homo sapiens, read-out: EC15 (concentration of inhibitor necessary to induce polyploidy in 15% of cells)), the EC15 is below 100 nM.

As for `NC(=O)[C@@H]1[C@H](Nc2nc(Nc3cn[nH]c3)ncc2F)[C@H]2C=C[C@@H]1C2.NC(=O)[C@H]1[C@@H](Nc2nc(Nc3cn[nH]c3)ncc2F)[C@@H]2C=C[C@H]1C2` (mixture of isomers) [Example 5, (1S,2S,3R,4R)-3-{[5-fluoro-2-(1H-pyrazol-4-ylamino)pyrimidin-4-yl]amino}bicyclo[2.2.1]hept-5-ene-2-carboxamide and (1R,2R,3S,4S)-3-{[5-fluoro-2-(1H-pyrazol-4-ylamino)pyrimidin-4-yl]amino}bicyclo[2.2.1]hept-5-ene-2-carboxamide], the inhibition constant (Ki) on Aurora B was below 100 nM; at KDR [1], 100 to 1000 nM; at Aurora A it was 100 to 1000 nM. The “EC15 (concentration of inhibitor necessary to induce polyploidy in 15% of cells)” value in the test on NCI-H1299 cells was “B (“B” represents an EC15 of between 0.1 μM and 1 μM)”.

For the molecule `CCn1cc(Nc2ncc(F)c(N[C@@H]3[C@H](C(N)=O)[C@H]4C=C[C@@H]3C4)n2)cn1.CCn1cc(Nc2ncc(F)c(N[C@H]3[C@@H](C(N)=O)[C@@H]4C=C[C@H]3C4)n2)cn1` (mixture of isomers) [Example 8, (1S,2S,3R,4R)-3-({2-[(1-ethyl-1H-pyrazol-4-yl)amino]-5-fluoropyrimidin-4-yl}amino)bicyclo[2.2.1]hept-5-ene-2-carboxamide and (1R,2R,3S,4S)-3-({2-[(1-ethyl-1H-pyrazol-4-yl)amino]-5-fluoropyrimidin-4-yl}amino)bicyclo[2.2.1]hept-5-ene-2-carboxamide], the Ki was below 100 nM on Aurora B, 100 to 1000 nM on KDR [1] and below 100 nM on Aurora A. In addition, the “EC15 (concentration of inhibitor necessary to induce polyploidy in 15% of cells)” value in the test with NCI-H1299 cells is given as “A (“A” represents an EC15 of less than 0.1 μM)”.

As to `CNC(=O)[C@@H]1[C@H](Nc2nc(Nc3cnn(C)c3)ncc2F)[C@H]2C=C[C@@H]1C2.CNC(=O)[C@H]1[C@@H](Nc2nc(Nc3cnn(C)c3)ncc2F)[C@@H]2C=C[C@H]1C2` (mixture of isomers) [Example 9, (1S,2S,3R,4R)-3-({5-fluoro-2-[(1-methyl-1H-pyrazol-4-yl)amino]pyrimidin-4-yl}amino)-N-methylbicyclo[2.2.1]hept-5-ene-2-carboxamide and (1R,2R,3S,4S)-3-({5-fluoro-2-[(1-methyl-1H-pyrazol-4-yl)amino]pyrimidin-4-yl}amino)-N-methylbicyclo[2.2.1]hept-5-ene-2-carboxamide], the Ki was below 100 nM on Aurora B, above 5000 nM at KDR [1] and 100 to 1000 nM on Aurora A. For the same molecule, the “EC15 (concentration of inhibitor necessary to induce polyploidy in 15% of cells)” value in the test on NCI-H1299 cells is reported as “A (“A” represents an EC15 of less than 0.1 μM)”.

With `NC(=O)[C@@H]1[C@H](Nc2nc(Nc3cnn(CCO)c3)ncc2F)[C@H]2C=C[C@@H]1C2.NC(=O)[C@H]1[C@@H](Nc2nc(Nc3cnn(CCO)c3)ncc2F)[C@@H]2C=C[C@H]1C2` (mixture of isomers) [Example 11, (1S,2S,3R,4R)-3-[(5-fluoro-2-{[1-(2-hydroxyethyl)-1H-pyrazol-4-yl]amino}pyrimidin-4-yl)amino]bicyclo[2.2.1]hept-5-ene-2-carboxamide and (1R,2R,3S,4S)-3-[(5-fluoro-2-{[1-(2-hydroxyethyl)-1H-pyrazol-4-yl]amino}pyrimidin-4-yl)amino]bicyclo[2.2.1]hept-5-ene-2-carboxamide], the Ki was below 100 nM at Aurora B, 100 to 1000 nM at KDR [1] and below 100 nM on Aurora A. In addition, the “EC15 (concentration of inhibitor necessary to induce polyploidy in 15% of cells)” value in the test with NCI-H1299 cells was “A (“A” represents an EC15 of less than 0.1 μM)”.

By IC50 is commonly meant the concentration needed to halve the response being measured. Regarding `Cc1c(Nc2ncc(Br)c(N[C@H]3[C@@H](C(N)=O)C[C@H]4C[C@@H]3C4(C)C)n2)cnn1C` [Example 185, (1R,2R,3S,5R)-2-({5-bromo-2-[(1,5-dimethyl-1H-pyrazol-4-yl)amino]pyrimidin-4-yl}amino)-6,6-dimethylbicyclo[3.1.1]heptane-3-carboxamide], the Ki at Aurora B, on KDR [1] and at Aurora A was below 100 nM in each case. Moreover, the IC50 on KDR [2] was in the range of 100 to 1000 nM.

For `CC1(C)[C@H]2C[C@H](C(N)=O)[C@H](Nc3nc(Nc4cnn(Cc5ccccc5)c4)ncc3Cl)[C@@H]1C2` [Example 187, (1R,2R,3S,5R)-2-({2-[(1-benzyl-1H-pyrazol-4-yl)amino]-5-chloropyrimidin-4-yl}amino)-6,6-dimethylbicyclo[3.1.1]heptane-3-carboxamide], the Ki at Aurora B, on KDR [1] and at Aurora A was below 100 nM each time. The IC50 on KDR [2] lay in the range of 100 to 1000 nM.

Take `CC1(C)[C@H]2C[C@H](C(N)=O)[C@H](Nc3nc(Nc4cnn(CCc5ccccc5)c4)ncc3Cl)[C@@H]1C2` [Example 188, (1R,2R,3S,5R)-2-[(5-chloro-2-{[1-(2-phenylethyl)-1H-pyrazol-4-yl]amino}pyrimidin-4-yl)amino]-6,6-dimethylbicyclo[3.1.1]heptane-3-carboxamide]: the Ki at Aurora B, on KDR [1] and on Aurora A was below 100 nM each time. Besides, the IC50 on KDR [2] fell in the range of 100 to 1000 nM.

As for `CC1(C)[C@H]2C[C@H](C(N)=O)[C@H](Nc3nc(Nc4cnn(-c5ccccc5)c4)ncc3Cl)[C@@H]1C2` [Example 189, (1R,2R,3S,5R)-2-({5-chloro-2-[(1-phenyl-1H-pyrazol-4-yl)amino]pyrimidin-4-yl}amino)-6,6-dimethylbicyclo[3.1.1]heptane-3-carboxamide], the Ki at Aurora B, at KDR [1] and on Aurora A was below 100 nM in each case. Also, the IC50 at KDR [2] was 100 to 1000 nM.

Take `CN1CCN(CCn2cc(Nc3ncc(Cl)c(N[C@H]4[C@@H](C(N)=O)C[C@H]5C[C@@H]4C5(C)C)n3)cn2)CC1` [Example 190, (1R,2R,3S,5R)-2-{[5-chloro-2-({1-[2-(4-methylpiperazin-1-yl)ethyl]-1H-pyrazol-4-yl}amino)pyrimidin-4-yl]amino}-6,6-dimethylbicyclo[3.1.1]heptane-3-carboxamide]: the Ki at Aurora B is below 100 nM; at KDR [1], 100 to 1000 nM; at Aurora A, 100 to 1000 nM. Also, the IC50 at KDR [2] fell in the range of 100 to 1000 nM.

For `CC1(C)[C@H]2C[C@H](C(N)=O)[C@H](Nc3nc(Nc4cnn(C5CCNCC5)c4)ncc3Cl)[C@@H]1C2` [Example 191, (1R,2R,3S,5R)-2-[(5-chloro-2-{[1-(piperidin-4-yl)-1H-pyrazol-4-yl]amino}pyrimidin-4-yl)amino]-6,6-dimethylbicyclo[3.1.1]heptane-3-carboxamide], the Ki on Aurora B, at KDR [1] and on Aurora A was below 100 nM each time. The half-inhibitory concentration (IC50) at KDR [2] lay within 100 to 1000 nM.

With “(1S,2S,3R,4R)-3-[(5-bromo-2-{[1-(3-fluoro-4-methoxybenzyl)-1H-pyrazol-4-yl]amino}pyrimidin-4-yl)amino]bicyclo[2.2.1]hept-5-ene-2-carboxamide [Example 193]”, the Ki at Aurora B, at KDR [1] and at Aurora A was below 100 nM each time. In addition, the IC50 at KDR [2] is below 100 nM.
